Where two headings read alike, the source gives them in different places.
Tests used:
Dopamine D5 = Dopamine D5 (Homo sapiens, UniProt P21918); assay: Receptor binding, Dopamine D5
Procedure: (§1) Receptor-ligand binding studies were performed as known to one skilled in the art. Compounds evaluated were LMP, the parent compound, the NDM LMP metabolite of LMP, and the sulfoxide metabolite of LMP. These studies verified receptor binding and affinity by the parent compound, as well as identified other potential receptors for the parent compound and its metabolites, and identified and verified receptors and receptor affinity for the metabolites.
(§2) Dopamine receptor affinity included binding to D1, D2, D3, D4, and D5 receptors. Serotonin receptor affinity included binding to 5-HT1A, 5-HT2A, 5-HT2B, 5-HT2, 5-HT5A, 5-HT6, and 5-HT7 receptors. Alpha adrenergic receptor affinity included binding to α1A, α1B, α1C, α2A, α2B, and α2C receptors. Muscarinic receptor affinity included binding to M1, M2, M3, M4, and M5 receptors. Binding to the histamine H1 receptor, the calcium ion channel receptor, and the sodium ion channel receptor were also evaluated. In each of the tables, the following abbreviations are used: LMP indicates the parent compound levomepromazine. NDM LMP indicates the N-desmethyl (N-desmethyl) metabolite. Sulfoxide indicates the sulfoxide metabolite. […] Ki (the inhibition constants of binding) indicate binding affinity.

Serotonin 5-HT5A = Serotonin 5-HT5A (Homo sapiens, UniProt P47898); assay: Receptor binding, Serotonin 5-HT5A
Procedure: as §1, §2

Serotonin 5-HT2A = Serotonin 5-HT2A (Homo sapiens, UniProt P28223); assay: Receptor binding, Serotonin 5-HT2A
Procedure: as §1, §2

Dopamine D3 = Dopamine D3 (Homo sapiens, UniProt P35462); assay: Receptor binding, Dopamine D3
Procedure: as §1, §2

Histamine H1 = Histamine H1 (Homo sapiens, UniProt P35367); assay: Receptor binding, Histamine H1; conditions: for Ki: Histamine H1; for Relative Affinity: Histamine
Procedure: as §1, §2

Muscarinic M1 = target: T1, Muscarinic M1 (Homo sapiens, UniProt P11229); assay: Receptor binding, Muscarinic M1
T1 sequence (P11229 1-460): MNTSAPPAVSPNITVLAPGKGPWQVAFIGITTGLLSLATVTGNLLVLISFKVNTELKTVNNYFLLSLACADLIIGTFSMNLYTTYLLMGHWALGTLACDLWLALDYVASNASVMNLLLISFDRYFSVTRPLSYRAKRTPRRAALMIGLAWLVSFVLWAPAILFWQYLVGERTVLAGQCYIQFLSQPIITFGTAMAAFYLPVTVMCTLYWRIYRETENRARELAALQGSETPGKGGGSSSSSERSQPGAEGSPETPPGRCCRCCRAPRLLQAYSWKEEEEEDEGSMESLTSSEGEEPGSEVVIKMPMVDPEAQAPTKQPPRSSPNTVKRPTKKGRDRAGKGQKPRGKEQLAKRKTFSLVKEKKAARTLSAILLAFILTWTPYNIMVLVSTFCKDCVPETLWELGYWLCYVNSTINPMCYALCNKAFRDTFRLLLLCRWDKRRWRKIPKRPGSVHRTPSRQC
Procedure: as §1, §2

Dopamine D2 = Dopamine D2 (Homo sapiens, UniProt P14416); assay: Receptor binding, Dopamine D2
Procedure: as §1, §2

Serotonin 5-HT1A = target: T2, Serotonin 5-HT1A (Homo sapiens, UniProt P08908); assay: Receptor binding, Serotonin 5-HT1A
T2 sequence (P08908 1-422): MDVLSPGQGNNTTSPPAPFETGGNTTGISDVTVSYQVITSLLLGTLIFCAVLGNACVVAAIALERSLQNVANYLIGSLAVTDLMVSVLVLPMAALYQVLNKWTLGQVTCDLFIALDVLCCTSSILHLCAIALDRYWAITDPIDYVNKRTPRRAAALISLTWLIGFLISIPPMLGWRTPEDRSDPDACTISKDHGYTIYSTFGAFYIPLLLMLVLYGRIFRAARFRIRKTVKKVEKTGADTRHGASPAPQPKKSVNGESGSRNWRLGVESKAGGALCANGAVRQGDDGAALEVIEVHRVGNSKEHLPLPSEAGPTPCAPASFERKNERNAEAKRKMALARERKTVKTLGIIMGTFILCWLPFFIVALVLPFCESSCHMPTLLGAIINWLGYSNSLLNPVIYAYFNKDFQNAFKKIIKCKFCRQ
Procedure: as §1, §2

Muscarinic M3 = Muscarinic M3 (Homo sapiens, UniProt P20309); assay: Receptor binding, Muscarinic M3
Procedure: as §1, §2

muscarinic receptors = assay: Receptor affinity summary, muscarinic receptors; format: binding; conditions: for binding affinity to muscarinic receptors (in words): all receptors; for Relative Affinity: Muscarinic
Procedure: as §1, §2

Sodium Channel = assay: Receptor binding, Sodium Channel; set-up: key to Relative Affinity: ≧ indicates greater or equal affinity; = indicates about the same affinity; − indicates no affinity
Procedure: as §1, §2

Muscarinic M4 = target: T3, Muscarinic M4 (Homo sapiens, UniProt P08173); assay: Receptor binding, Muscarinic M4
T3 sequence (P08173 1-479): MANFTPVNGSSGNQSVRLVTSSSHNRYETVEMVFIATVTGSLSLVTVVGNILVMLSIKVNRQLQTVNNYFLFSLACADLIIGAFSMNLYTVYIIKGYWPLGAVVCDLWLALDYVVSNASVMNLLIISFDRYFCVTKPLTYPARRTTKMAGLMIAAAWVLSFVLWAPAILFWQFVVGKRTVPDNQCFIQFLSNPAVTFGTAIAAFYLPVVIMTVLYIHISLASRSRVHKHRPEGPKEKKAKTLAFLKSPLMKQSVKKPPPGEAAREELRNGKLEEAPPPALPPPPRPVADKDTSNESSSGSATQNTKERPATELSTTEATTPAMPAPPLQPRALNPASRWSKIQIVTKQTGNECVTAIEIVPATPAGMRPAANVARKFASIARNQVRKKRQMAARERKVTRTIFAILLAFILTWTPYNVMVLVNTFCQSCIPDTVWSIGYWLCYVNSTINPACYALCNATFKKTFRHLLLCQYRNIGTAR
Procedure: as §1, §2

Dopamine D5, sequence (P21918 whole entry): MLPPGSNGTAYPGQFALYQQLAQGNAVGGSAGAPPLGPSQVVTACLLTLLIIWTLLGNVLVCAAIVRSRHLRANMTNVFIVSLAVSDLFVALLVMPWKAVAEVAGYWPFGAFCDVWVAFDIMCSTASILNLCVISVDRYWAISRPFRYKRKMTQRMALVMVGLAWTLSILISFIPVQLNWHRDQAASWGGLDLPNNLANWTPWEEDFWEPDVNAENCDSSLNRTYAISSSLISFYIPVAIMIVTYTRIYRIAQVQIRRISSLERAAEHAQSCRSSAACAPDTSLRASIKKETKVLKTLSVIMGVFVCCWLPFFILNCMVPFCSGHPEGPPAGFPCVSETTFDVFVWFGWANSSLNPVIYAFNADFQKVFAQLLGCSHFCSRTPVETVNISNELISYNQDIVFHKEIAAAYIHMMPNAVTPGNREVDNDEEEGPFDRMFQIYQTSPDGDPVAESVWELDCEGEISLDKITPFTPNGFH
Muscarinic M3, sequence (P20309 whole entry): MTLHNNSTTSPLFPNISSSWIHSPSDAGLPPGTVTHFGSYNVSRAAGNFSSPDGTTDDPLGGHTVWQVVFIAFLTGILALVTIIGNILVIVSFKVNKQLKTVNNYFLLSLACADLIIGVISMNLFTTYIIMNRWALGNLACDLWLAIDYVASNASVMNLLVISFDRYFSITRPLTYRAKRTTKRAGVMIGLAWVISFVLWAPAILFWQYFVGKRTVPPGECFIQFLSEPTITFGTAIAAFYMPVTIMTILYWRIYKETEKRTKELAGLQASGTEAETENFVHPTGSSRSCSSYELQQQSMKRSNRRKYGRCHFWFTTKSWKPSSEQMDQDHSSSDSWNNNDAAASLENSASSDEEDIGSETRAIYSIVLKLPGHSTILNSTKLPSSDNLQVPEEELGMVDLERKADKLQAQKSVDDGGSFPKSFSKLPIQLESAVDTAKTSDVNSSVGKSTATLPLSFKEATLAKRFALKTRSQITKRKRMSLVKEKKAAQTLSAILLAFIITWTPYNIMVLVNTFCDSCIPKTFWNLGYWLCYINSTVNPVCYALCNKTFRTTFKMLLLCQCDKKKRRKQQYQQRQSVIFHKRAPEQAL
Histamine H1, sequence (P35367 whole entry): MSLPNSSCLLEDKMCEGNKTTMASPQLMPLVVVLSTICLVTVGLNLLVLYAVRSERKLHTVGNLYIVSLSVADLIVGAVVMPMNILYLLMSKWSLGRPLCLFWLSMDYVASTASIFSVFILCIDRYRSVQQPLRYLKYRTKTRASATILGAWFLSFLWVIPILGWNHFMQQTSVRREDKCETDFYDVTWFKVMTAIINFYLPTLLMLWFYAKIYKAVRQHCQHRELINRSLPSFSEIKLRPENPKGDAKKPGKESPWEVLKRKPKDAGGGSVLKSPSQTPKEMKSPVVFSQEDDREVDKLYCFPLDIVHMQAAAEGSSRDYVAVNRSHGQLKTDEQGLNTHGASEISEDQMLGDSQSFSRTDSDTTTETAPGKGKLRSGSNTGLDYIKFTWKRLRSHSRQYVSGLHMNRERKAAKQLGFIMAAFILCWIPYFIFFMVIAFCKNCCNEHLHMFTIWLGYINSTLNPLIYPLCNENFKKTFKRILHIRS
Serotonin 5-HT2A, sequence (P28223 whole entry): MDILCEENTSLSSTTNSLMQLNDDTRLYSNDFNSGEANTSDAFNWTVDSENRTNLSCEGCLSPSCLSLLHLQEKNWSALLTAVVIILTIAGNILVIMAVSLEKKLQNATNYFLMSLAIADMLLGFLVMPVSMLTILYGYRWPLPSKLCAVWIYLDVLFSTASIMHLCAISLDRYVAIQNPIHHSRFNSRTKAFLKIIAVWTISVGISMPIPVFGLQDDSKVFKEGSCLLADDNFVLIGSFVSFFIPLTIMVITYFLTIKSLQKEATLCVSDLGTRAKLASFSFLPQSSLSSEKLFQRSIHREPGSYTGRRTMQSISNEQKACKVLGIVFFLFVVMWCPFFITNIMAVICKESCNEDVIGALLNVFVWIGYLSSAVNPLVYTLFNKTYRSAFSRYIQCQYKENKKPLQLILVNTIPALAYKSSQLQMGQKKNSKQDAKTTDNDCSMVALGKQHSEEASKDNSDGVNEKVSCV
Serotonin 5-HT5A, sequence (P47898 whole entry): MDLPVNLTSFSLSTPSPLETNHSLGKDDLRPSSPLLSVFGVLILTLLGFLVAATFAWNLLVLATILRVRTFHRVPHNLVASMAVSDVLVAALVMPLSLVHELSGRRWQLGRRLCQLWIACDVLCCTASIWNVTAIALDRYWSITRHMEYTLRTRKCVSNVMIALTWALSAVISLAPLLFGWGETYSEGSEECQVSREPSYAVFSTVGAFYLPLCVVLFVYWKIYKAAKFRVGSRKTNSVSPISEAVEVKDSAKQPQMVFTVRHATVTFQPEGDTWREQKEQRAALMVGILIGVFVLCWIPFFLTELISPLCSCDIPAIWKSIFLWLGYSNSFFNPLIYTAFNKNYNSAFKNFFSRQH
Dopamine D3, sequence (P35462 whole entry): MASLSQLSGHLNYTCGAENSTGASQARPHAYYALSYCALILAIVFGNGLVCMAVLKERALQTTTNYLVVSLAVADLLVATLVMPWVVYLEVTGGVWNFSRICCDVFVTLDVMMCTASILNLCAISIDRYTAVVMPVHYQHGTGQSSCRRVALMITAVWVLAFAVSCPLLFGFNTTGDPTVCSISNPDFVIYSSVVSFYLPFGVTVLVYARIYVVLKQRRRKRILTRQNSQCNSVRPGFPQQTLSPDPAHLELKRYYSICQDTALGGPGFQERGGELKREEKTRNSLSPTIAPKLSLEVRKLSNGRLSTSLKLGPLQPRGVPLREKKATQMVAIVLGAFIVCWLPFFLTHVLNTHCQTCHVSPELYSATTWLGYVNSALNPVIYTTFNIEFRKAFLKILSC
Dopamine D2, sequence (P14416 whole entry): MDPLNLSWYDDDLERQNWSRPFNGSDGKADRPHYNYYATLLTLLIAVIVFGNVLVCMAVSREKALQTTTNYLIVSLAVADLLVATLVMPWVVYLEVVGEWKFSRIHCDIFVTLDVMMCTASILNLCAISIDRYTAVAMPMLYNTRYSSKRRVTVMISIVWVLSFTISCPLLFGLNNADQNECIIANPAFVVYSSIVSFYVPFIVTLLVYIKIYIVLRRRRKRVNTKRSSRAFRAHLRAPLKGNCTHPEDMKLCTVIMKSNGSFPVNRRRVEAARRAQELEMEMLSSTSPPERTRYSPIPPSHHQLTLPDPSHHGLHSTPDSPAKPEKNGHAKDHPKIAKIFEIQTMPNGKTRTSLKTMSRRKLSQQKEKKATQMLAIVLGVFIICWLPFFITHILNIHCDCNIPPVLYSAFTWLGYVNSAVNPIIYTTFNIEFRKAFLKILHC

| Structure (SMILES) | Ki (Dopamine D5) [nM] | Ki (Serotonin 5-HT5A) [nM] | Ki (Serotonin 5-HT2A) [nM] | Ki (Dopamine D3) [nM] | Ki (Histamine H1) [nM] | Ki (Muscarinic M1) [nM] | Ki (Dopamine D2) [nM] | Ki (Serotonin 5-HT1A) [nM] | Ki (Muscarinic M3) [nM] | binding affinity to muscarinic receptors (in words) (muscarinic receptors) | Ki (Sodium Channel; read-out: Ki) [nM] | Ki (Muscarinic M4) [nM] | Relative Affinity (Histamine H1) | Relative Affinity (muscarinic receptors) | Relative Affinity (Sodium Channel) | Ki (Sodium Channel) |
| --- | --- | --- | --- | --- | --- | --- | --- | --- | --- | --- | --- | --- | --- | --- | --- | --- |
| COc1ccc2c(c1)N(C[C@H](C)CN(C)C)c1ccccc1S2 [LMP, Levomepromazine] | 180 | 136 | < 4 | 4 | 2 | 43 | 8 | 827 | 39 | moderate-to-high affinities | 1090 | 34 |  |  |  |  |
| CNCC(C)CN1c2ccccc2Sc2ccc(OC)cc21 (stereo not drawn) [NDM LMP, R(+) 2-methoxy-10-2-methyl-3-monomethylaminopropyl phenothiazine] | 243 | 152 | < 4 | 5 | 2.1 | 54 | 17 | 641 | 47 | moderate-to-high affinities | 643 | 88 | LMP = NDM LMP = sulfoxide | LMP = NDM LMP > sulfoxide | NDM LMP > LMP |  |
| COc1ccc2c(c1)N(C[C@H](C)CN(C)C)c1ccccc1[S+]2[O-] (stereo partly shown) [Sulfoxide, levomepromazine sulfoxide] | > 10000 | > 10000 | 410 | > 10000 | 6.1 | 726 | > 10000 | > 10000 | 551 | low affinity | > 10000 | 318 | LMP = NDM LMP = sulfoxide | LMP = NDM LMP > sulfoxide | − | no affinity was detected |
